Reference: US9051335B2, “Antipruritic agent for pruritus caused by multiple sclerosis” (TORAY INDUSTRIES, INC., priority 2005, dated 2015)

System: MRL/lpr mice
Test: Spontaneous scratching behavior in MRL/lpr mice (antipruritic effect)
Format: in vivo
Conditions: 20 weeks old female MRL/lpr mice, n=8
Description: [drawing 8] which is an κ opioid receptor agonist compound against pruritus was evaluated. The evaluation was carried out over 5 days dividedly. On Day 1, sterilized distilled water was orally administered 30 minutes before the beginning of the recording of the scratching behavior, and the number of scratching behavior when the mouse received a solvent was counted for 60 minutes. On Day 2, Compound 1 was orally administered to the same mouse 30 minutes before the beginning of the recording of the scratching behavior at a dose of 3 μg/kg, and the number of scratching behavior was counted for 60 minutes. On Days 3 to 5, the experiments were carried out in the same schedule as in Day 2 increasing the dose of Compound 1 such that the doses of Compound 1 on Day 3, Day 4 and Day 5 were 10 μg/kg, 30 μg/kg and 100 μg/kg, respectively (n=8). […] The number of scratching behavior was counted visually by replaying the video tape. The number of scratching behavior was counted such that the series of behavior from raising the hind leg for starting the scratching to putting down the hind leg were counted as one scratching behavior. […]

In the case of `CN(C(=O)/C=C/c1ccoc1)[C@@H]1CC[C@@]2(O)[C@H]3Cc4ccc(O)c5c4[C@@]2(CCN3CC2CC2)[C@H]1O5.Cl` [Compound 1, (−)-17-cyclopropylmethyl-4,5α-epoxy-3,14β-dihydroxy-6β-(N-methyl-trans-3-(3-furyl)acrylamido)morphinan hydrochloric acid salt], the “number of scratching behavior (60 minutes) versus control group at the time of administration of the solvent” value (30 μg/kg orally 30 minutes before recording, significant at statistical level of 5%) is reported as “decreased” and the “number of scratching behavior (60 minutes) versus control group at the time of administration of the solvent” value (100 μg/kg orally 30 minutes before recording, significant at statistical level of 1%) is reported as “decreased”.
